From patent EP4442684A1, “A CLASS OF PYRIMIDINE COMPOUNDS, AND PREPARATION METHOD THEREFOR AND USE THEREOF” (Shanghai Allist Pharmaceuticals Co., Ltd., priority 2021, dated 2023)

System: PC-9-EGFR-Del19-T790M-C797S cells
Experiment: proliferation inhibition on PC-9-EGFR-Del19-T790M-C797S cells, sulforhodamine B method (SRB method)
Assay type: cell-based
Conditions: Homo sapiens, in vitro proliferation inhibition, 72 hours culture, final concentrations 2500 to 0.01nM
Experimental: The in vitro proliferation inhibition activity of the compound on PC-9-EGFR-Del19-T790M-C797Slcells where Del19/T790M/C797S triple mutation exists in exogenously stably overexpressed EGFR protein of human non-small cell lung cancer PC-9 was determined by sulforhodamine B method (SRB method).
Cell source: PC-9-EGFR-Del19-T790M-C797S cells were purchased from Nanjing Cobioer Biosciences Co., Ltd.
PC-9-EGFR-Del19-T790M-C797S cells were cultured in an RPMI1640 complete medium containing puromycin (2µg/ml) and 10% fetal bovine serum. PC-9-EGFR-Del19-T790M-C797S cells in a logarithmic growth phase were taken, seeded in a 96-well plate at a cell density of 5000 cells/135µL complete culture medium/well, placed in a thermostatic incubator containing 5% CO2 at 37°C and cultured for 24 hours to ensure complete anchorage of cells. Each compound was dissolved in dimethyl sulfoxide (DMSO) in advance to prepare a 10mM stock solution, and then the compound was successively diluted with DMSO and the complete culture medium. […]
GraphPad Prism 8.3 software was used for data analysis, and non-linear S-curve regression was used for fitting the data to obtain a dose-effect curve, from which an IC50 value was calculated, and the results are shown in Table 1.

In the case of `C=CC(=O)Nc1cc(Nc2nccc(-c3cn(C)c4ccccc34)n2)c(OCC(F)(F)F)nc1N(C)CC[N+](C)(C)[O-]` [Compound V], the IC50 is reported as 564 nM.
